Assay results: patent US20250101485A1, “METHODS OF PRODUCING C[…] ACID WHEY” (priority 2022, published 2025)
“Also recorded” adds a separate entry of the source.

B1: Y27R: variant of the R domain (lycopene cyclase) of CarRP with the substitution Y27R (protein)
chain: MLLTYMEVHLYYTLPVLGVLSWLSRPRYTATDALKFKFLTLVAFTTASAWDNYIVYHKAWSYCPTCVTAVIGYVPLEEYMFFIIMTLLTVAFTNLVMRWHLHSFFIRPETPVMQSVLVRLVPITALLITAYKAWHLAVPGKPLFYGSCILWYACPVLALLWFGAGEYMMRRPLAVLVSIALPTLFLCWVDVVAIGAGTWDISLATSTGKFVVPHLPVEEFMFFALINTVLVFGTCAI

Assays:
lycopene cyclase (CarRP) [1] = biological target: T1, lycopene cyclase (CarRP) (Mucor circinelloides f. lusitanicus, UniProt Q9UUQ6); assay: In vitro enzymatic assay of lycopene cyclase in yeast microsomes; type: biochemical; conditions: wild type CarRP (or CarR); lycopene 50˜350 mol/L as substrate, 30° C., 16 h
T1 construct: made in house; host or cells: Yarrowia lipolytica (po1f-derived strains); crude microsomal fraction
Method: (§1) To test this hypothesis, possible correlations between lycopene cyclase activity and lycopene concentration were examined using an in vitro enzymatic assay that employed a yeast microsomal system, as CarRP is predicted to be a membrane protein with six transmembrane helices (FIG. 26). […] This supported the hypothesis that lycopene cyclase was substrate-inhibited, thus creating a major bottleneck in carotenoid biosynthesis.
(§2) Yeast microsomes for in vitro enzymatic assays were prepared as described previously (Pompon et al., 1996). Briefly, strains harboring wild type or mutated CarRP were grown overnight in YNB media at 30° C. and then inoculated into 200 mL YNB media to an initial OD600 of 0.1. After 24 h cultivation, cells were collected by centrifugation at 4,000 rpm for 10 min. Resuspension of the cells in TEK buffer (50 mM Tris-HCl, pH 6.8, 1 mM EDTA, 0.1 M KCl) followed, and the solution was kept at room temperature for 5 min. Afterwards, the cells were recovered by centrifugation, washed in TES buffer (50 mM Tris-HCl, pH 6.8, 1 mM EDTA, 0.6 M sorbitol), resuspended in TESM buffer (50 mM Tris-HCl, pH 6.8, 1 mM EDTA, 0.6 M sorbitol, 14 mM 2-mercaptoethanol), and left at room temperature for 10 min. […] The solution was vortex for 10 min, and the organic phase was collected by centrifugation and analyzed by HPLC.

lycopene cyclase (CarRP) [2] = biological target: T2, lycopene cyclase (CarRP) (Mucor circinelloides f. lusitanicus, UniProt Q9UUQ6, Y27R); assay: as above; type: biochemical; conditions: CarRP (or CarR) variant compared to wild type; relative catalytic activity, FIG. 16D
T2 construct: made in house; host or cells: Yarrowia lipolytica (po1f-derived strains); crude microsomal fraction
Method: as §1, §2

T1 sequence (Q9UUQ6 whole entry): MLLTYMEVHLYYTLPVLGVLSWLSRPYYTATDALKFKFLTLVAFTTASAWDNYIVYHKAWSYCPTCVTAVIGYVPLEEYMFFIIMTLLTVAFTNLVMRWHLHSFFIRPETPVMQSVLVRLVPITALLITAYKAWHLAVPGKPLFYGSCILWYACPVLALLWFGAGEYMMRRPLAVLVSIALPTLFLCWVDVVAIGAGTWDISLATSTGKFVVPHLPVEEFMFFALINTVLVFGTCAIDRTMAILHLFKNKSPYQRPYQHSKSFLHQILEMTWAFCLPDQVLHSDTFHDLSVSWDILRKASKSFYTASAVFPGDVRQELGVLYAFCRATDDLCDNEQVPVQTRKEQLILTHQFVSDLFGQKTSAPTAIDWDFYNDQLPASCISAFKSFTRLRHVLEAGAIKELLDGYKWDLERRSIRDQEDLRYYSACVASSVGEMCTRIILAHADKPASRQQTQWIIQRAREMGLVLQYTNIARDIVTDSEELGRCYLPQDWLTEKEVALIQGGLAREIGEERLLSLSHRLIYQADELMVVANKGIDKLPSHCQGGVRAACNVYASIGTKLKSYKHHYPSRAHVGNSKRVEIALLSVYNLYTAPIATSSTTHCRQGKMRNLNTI
T2 sequence (Q9UUQ6 whole entry Y27R): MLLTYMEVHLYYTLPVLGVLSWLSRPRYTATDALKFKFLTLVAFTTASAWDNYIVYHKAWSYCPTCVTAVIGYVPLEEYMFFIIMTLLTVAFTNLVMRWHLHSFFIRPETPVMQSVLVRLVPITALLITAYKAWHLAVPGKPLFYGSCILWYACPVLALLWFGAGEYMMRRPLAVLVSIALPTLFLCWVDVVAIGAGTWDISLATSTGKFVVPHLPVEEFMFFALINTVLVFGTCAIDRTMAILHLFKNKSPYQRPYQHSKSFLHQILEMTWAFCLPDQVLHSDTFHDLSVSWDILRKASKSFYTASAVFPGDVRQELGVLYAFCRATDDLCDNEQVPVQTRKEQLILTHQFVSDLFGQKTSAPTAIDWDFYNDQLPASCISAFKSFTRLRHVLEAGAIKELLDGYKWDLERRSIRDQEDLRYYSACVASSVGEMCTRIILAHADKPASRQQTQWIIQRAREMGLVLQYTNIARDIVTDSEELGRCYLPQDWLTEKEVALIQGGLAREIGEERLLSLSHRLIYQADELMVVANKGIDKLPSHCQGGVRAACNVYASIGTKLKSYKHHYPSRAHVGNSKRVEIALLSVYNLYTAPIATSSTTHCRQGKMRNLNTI

Molecule | lycopene cyclase activity with respect to lycopene concentration (substrate inhibition) (lycopene cyclase (CarRP) [1]) | substrate inhibition of lycopene cyclase variant by lycopene (lycopene cyclase (CarRP) [2])
CC(C)=CCC/C(C)=C/C=C/C(C)=C/C=C/C(C)=C/C=C/C=C(C)/C=C/C=C(C)/C=C/C=C(\C)CCC=C(C)C [lycopene] | bi-phasic; also recorded: inhibited its downstream enzyme, lycopene cyclase, through substrate inhibition | –
B1 | – | complete loss of substrate inhibition without reduction in enzyme activity; also recorded: completely free of substrate inhibition
